Where two headings read alike, the source gives them in different places.
Molecular target: T1, AChE from electric eel (Electrophorus electricus, UniProt O42275)
T1 construct: purchased Sigma (St. Louis, USA)
Experiment: Quantitative colorimetric microplate assay based on Ellman's method for AChE inhibitory activity
Format: biochemical
Settings: for IC50: read-out: IC50, inhibition of AchE (converted)
Procedure: The tested concentrations of the samples ranged from 1.56 to 200 μg/mL. Based on the resulting curves, the IC50 values for AChE inhibition were calculated using the respective curves’ equations (Table 1).
Acetylthiocholine iodide (ATCI) and chelidonine were obtained from Fluka (Buchs, Switzerland). Fast Blue B salt (FBS) and silica gel 60 were from Merck (Darmstadt, Germany). The solvents MeOH, EtOAc, CH2Cl2, and CHCl3 were purchased from VWR (Vienna, Austria). Two different buffer systems were used (buffer A: 50 mM Tris-HCl, pH 7.9 containing 0.1% BSA; buffer B: 50 mM Tris-HCl, pH 7.9 containing 0.1 M NaCl and 0.02 M MgCl2·6H2O).
A quantitative colorimetric assay based on Ellman’s method was used to measure the AChE inhibitory activities of the substances. Briefly, in a 96-well plate, 25 μL of 15 mM ATCI, 125 μL of 3 mM DTNB in buffer B, 50 μL of buffer A, and 25 μL of the extract or the isolated substances (from 15.6 μg/mL to 2.0 mg/mL in 10% DMSO) were thoroughly mixed and the absorbance was read at 405 nm five times every 15 s. Finally, 25 μL of AChE (0.22 U/mL in buffer A) were added and the plate was incubated at 25°C for 10 minutes. Then the absorbance was measured again eight times every 15 s. A 10% DMSO solution was used as the negative control. To compensate for any increase in absorbance due to the color of the extracts or spontaneous hydrolysis of the substrate, the absorbance before the addition of the enzyme was subtracted from the absorbance after adding the enzyme. The assay was repeated three times for every concentration.

[1] = n=3, 25°C, 10 min incubation, tested 1.56 to 200 μg/mL
[2] = n=3, same values given in molar unit

T1 sequence (O42275 24-633): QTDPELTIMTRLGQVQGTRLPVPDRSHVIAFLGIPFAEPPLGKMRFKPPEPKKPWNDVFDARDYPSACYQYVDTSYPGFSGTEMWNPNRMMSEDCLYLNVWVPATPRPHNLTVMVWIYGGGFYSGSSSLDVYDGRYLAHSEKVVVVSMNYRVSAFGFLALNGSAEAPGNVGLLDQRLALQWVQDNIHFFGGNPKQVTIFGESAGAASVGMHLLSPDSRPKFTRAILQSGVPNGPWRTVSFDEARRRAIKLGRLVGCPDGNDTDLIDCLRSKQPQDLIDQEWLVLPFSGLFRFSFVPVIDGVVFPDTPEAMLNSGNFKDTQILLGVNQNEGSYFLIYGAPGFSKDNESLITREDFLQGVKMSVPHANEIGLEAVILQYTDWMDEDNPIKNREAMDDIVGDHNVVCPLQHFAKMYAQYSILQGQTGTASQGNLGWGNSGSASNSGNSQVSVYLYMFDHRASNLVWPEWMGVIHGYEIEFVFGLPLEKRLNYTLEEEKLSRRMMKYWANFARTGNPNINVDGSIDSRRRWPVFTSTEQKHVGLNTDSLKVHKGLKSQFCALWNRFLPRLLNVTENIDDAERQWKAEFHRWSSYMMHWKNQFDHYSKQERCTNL

Row | SMILES | AChE inhibitory activity (in words) | IC50 [1] [µM] | IC50 [2] [µM] | times more active than compounds 1, 2 and 4 (AChE inhibition) (comparison of IC50 values)
1 | C=C[C@]1(C)CC[C@@H](C(C)C(O)C(=O)C=C(C)C)C12C(=O)Oc1cc(OC)ccc1C2=O (stereo partly drawn) [Compound 1, (2′S,5′S)-2′-ethenyl-5′-(3hydroxy-6-methyl-4-oxohept-5-en-2-yl)-7-methoxy-2′-methyl-4H-spiro[chromene-3,1′-cyclopentane]-2,4-dione] | only low activities | 181 | 181 | –
2 | C=C[C@]1(C)CC[C@H]([C@@H](C)C(=O)[C@H](O)C=C(C)C)C12C(=O)Oc1cc(OC)ccc1C2=O (stereo partly drawn) [Compound 2, (2′S,5′R)-2′-ethenyl-5′-[(2R,4R)-4-hydroxy-6-methyl-3-oxohept-5-en-2-yl]-7-methoxy-2′-methyl-4H-spiro[chromene-3,1′-cyclopentane]-2,4-dione] | only low activities | 236 | 237 | –
3 | CC(C)=CCC/C(C)=C/CC/C(C)=C/CCC(=O)c1ccc(O)cc1O [Compound 3, (4E,8E)-1-(2,4-dihydroxyphenyl)-5,9,13-trimethyltetradeca-4,8,12-trien-1-one] | – | 23.4 | 23.5 | about 10 times
4 | CC(C)=CCC/C(C)=C/CC/C(C)=C/Cc1c(O)c2ccc(O)cc2oc1=O [Compound 4, 4,7-dihydroxy-3-[(2E,6E)-3,7,11-trimethyldodeca-2,6,10-trien-1-yl]-2H-chromen-2-one] | only low activities | 201 | 201 | –
